The record followed here is patent US8901337B2, “Metal complexes having dual histone deacetylase inhibitory and DNA-binding activity” (Royal College of Surgeons in Ireland, priority 2009, dated 2014).

For data set [1], the system named is A2780 P ovarian cancer cells. Put plainly: Cell cycle progression, flow cytometry (propidium iodide). It is filed as cell-based, human. The following applies: 72 hr. How it is done: Both floating and attached cells were collected by centrifugation, washed twice in ice-cold PBS, pH 7.4, harvested by scraping with a rubber policeman, and then collected by centrifugation. The effect of drug treatment on cell cycle progression was determined using flow cytometric analysis according to the method of Nunez (2001).^21 Briefly, cell suspensions were fixed and permeabilised by vigorous addition of nine volumes of ice-cold 70% (v/v) ethanol and stored at −20° C. for a minimum of 24 h, prior to analysis. Cells at a density of approximately 1×10^6 were re-suspended in 800 μl of propidium iodide staining solution (20 μg/ml propidium iodide and 200 μg/ml RNase A in PBS, pH 7.4) and incubated in the dark at room temperature for 30 min. The percentage of cells in the sub-G1, G0/G1, S and G2/M phases of the cell cycle was determined over a range of concentrations and time points, and analysed from at least three independent experiments using Cell Quest™ software (Becton Dickinson).
For orientation: In flow cytometry, cells or beads pass a laser one at a time.

For data set [2], the system named is A2780 cisR cells. Put plainly: Inhibition of DNA synthesis, BrdU incorporation assay, A2780 cisR. The note with it: 72 hr, FIG. 19. It is filed as cell-based, human. The method, then:
(§1) DNA synthesis was determined using 5-bromo-2-deoxyuridine (BrdU) colourimetric incorporation assay.^18 A2780 P and A2780 cisR cells were seeded into 96 well plates and allowed to adhere overnight. All test agents were added and incubated for 72 hr prior to the addition of BrdU (10 μM per well). Plates were then incubated at 37° C. for 4 h and incorporation was quantified by ELISA (Calbiochem).
On the technique in general: Incorporation of labelled thymidine or its analogues reports DNA synthesis.

Data set [3] concerns DNA in A2780 cisR cells. Put plainly: Pt binding to DNA in cultured cells (ICP-MS), A2780 cisR. It is filed as cell-based, human. The following applies: 4 hours of cell treatment. How it is done: Pt DNA binding of Pt complexes was measured in SW480 cells (colon cancer) and CH1 cells (lymphoma) or alternatively A2780 P and A2780 cisR cells (sensitive and resistant to cisplatin respectively). The cells were seeded in 60 mm tissue culture dishes with 10 ml of their respective medium. After overnight incubation the medium was removed and replaced with 10 ml of the respective medium containing a platinum complex giving a final concentration of 43 or 40 μM depending on the experiment. The cells were incubated with a given Pt complex for either 2 or 4 h depending on the experiment. The cells were trypsinised and centrifuged. The supernantant was removed and the cells washed twice with 1×PBS and centrifuged. The pellet was re-suspended in DNA buffer to which Proteinase K (20 mg/mL) and 10% SDS were added. After a gentle shake and incubation at 45° C. for two hours, RNAse (100 mg/mL) was added and the cells were incubated at 37° C. overnight. The volume of supernatant was noted and an equal volume of phenol was added.
The resulting mixture was shook for 10 min, then centrifuged for 10 min at 10° C. The supernatant was transferred into a new centrifuge tube (15 ml) and the volume was noted. […] The absorbance of the DNA by was measured by UV spectrophotometry at 260 nm and 280 nm and the concentration of DNA calculated. Platinum bound to DNA was determined by ICP-MS.

For data set [4], the system named is A2780 cisR (cisplatin resistant ovarian cancer cells). The data set is described as follows: Cellular uptake of Pt (FAAS), A2780 cisR. It is filed as cell-based, human. The note with it: 10 μM, 24 hours treatment.
For data set [5], the system named is A2780 P cells. The data set is described as follows: Inhibition of DNA synthesis, BrdU incorporation assay, A2780 P. It is filed as cell-based, human. The note with it: 72 hr, FIG. 18. The method, then: as §1
The subject of data set [6] is liver cell lines (Hep-G2). The data set is described as follows: MTS in vitro cytotoxicity, Hep-G2. It is filed as cell-based. The note with it: 72 hours, Table 1, read-out: IC50 values against Hep-G2. How it is done:
(§2) All cells were kept in a humidified atmosphere with 5% CO2 at 37° C.; cells from confluent monolayers were removed from flasks by trypsin/EDTA solution and their viability determined by the trypan blue exclusion test.
(§3) Cell growth was determined by the [3-(4,5-dimethylthiazol-2-yl)-5-(3-carboxymethoxyphenyl)-2-(4-sulfophenyl)-2H-tetrazolium, inner salt, (MTS test, Promega, Southampton, UK), a colorimetric assay based on the ability of the viable cells to reduce a soluble yellow tetrazolium salt to blue formazan. 10,000 ovarian cancer cells or 3,000 fibroblast cells for example were seeded per well onto 96-well plates in 100 μl of the appropriate culture medium. 24 hr after sowing the cells, the media was removed and the cells were treated by adding 100 μl of the compound media solutions at the appropriate concentrations. cis-[Pt(NH3)2(malSAHA−2H)], cisplatin and cis-[Pt(NH3)2(mal)] were prepared freshly in cell culture media. […] The maximum percentage of dmso present in any well was less than 0.1% (v/v). cis-[Pt(NH3)2(malBel—2H)], belinostat and malbelinostat were freshly prepared in dimethyl formamide (DMF) and diluted in culture media prior to the MTS assay. The maximum percentage of DMF present in any well was 0.5% (v/v). A range of concentrations between 1 μM and 100 μM was used.
(§4) After 72 hr of treatment, 20 μl of the MTS reagent was added to each well and the plates incubated for 2 hr at 37° C. […] The percentages of surviving cells relative to untreated controls were determined.

Data set [7] deals with breast cancer cell line (SKBR). The data set is described as follows: MTS in vitro cytotoxicity, SKBR. The note with it: 72 hours, Table 1, read-out: IC50 values against SKBR. It is filed as cell-based. How it is done:
as §2, §3, §4

For data set [8], the system named is cell line (CH1). The data set is described as follows: MTS in vitro cytotoxicity, CH1. It is filed as cell-based. The note with it: 72 hours, Table 1, read-out: IC50 values against CH1. The method, then: as §2, §3, §4

As to `[NH2][Pt]1([NH2])[O]C(=O)C(Cc2ccc(NS(=O)(=O)c3ccc(/C=C/C(=O)NO)cc3)cc2)C(=O)[O]1` [cis-[Pt(NH3)2(malBel−2H)], cis-[Pt(NH3)2(malBel−2H)].1.5H2O], in data set [1] (concentration equal to IC50), the “% G0/G1 ± S.E.M.” value is listed as 16.16 ± 0.88%, the “% G2/M ± S.E.M.” value amounted to 7.91 ± 0.03%, the “% S ± S.E.M.” value came out at 7.21 ± 0.11% and the “% Sub-G1 ± S.E.M.” value amounted to 60.86 ± 0.26%. For the same compound, in data set [1] (concentration equal to IC75), the “% G0/G1 ± S.E.M.” value was determined as 11.75 ± 0.17%, the “% G2/M ± S.E.M.” value is 8.04 ± 0.72%, the “% S ± S.E.M.” value is reported as 5.59 ± 0.36% and the “% Sub-G1 ± S.E.M.” value worked out at 67.67 ± 0.43%. The “sub-G1 accumulation (in words)” value in data set [1] (A2780 P) is “dose dependent increase in sub-G1 accumulation compared to control cells”. Also, the “effect on DNA synthesis, BrdU incorporation” value in data set [2] is listed as “dose-dependant decrease in DNA synthesis”. In addition, the “DNA binding in A2780 cisR compared with cisplatin (in words)” value in data set [3] was “binds DNA in A2780 P and A2780 cisR cancer cells and to a greater extent than cisplatin”. In data set [4], the “Uptake of Pt complexes into A2780 cisR” value is 42.3 ± 5.3 pmol Pt/2 × 10^6 cell. The “effect on DNA synthesis, BrdU incorporation” value in data set [5] is recorded as “dose-dependant decrease in DNA synthesis”.

One may read the IC50 as the concentration needed to halve the response being measured. For the compound `[NH2][Pt]1([NH2])[O]C(=O)C(Cc2ccc(NC(=O)CCCCCCC(=O)NO)cc2)C(=O)[O]1` [cis-[Pt(NH3)2(malSAHA−2H)], cis-[Pt(NH3)2(malSAHA−2H)].3H2O], the IC50 in data set [6] amounted to 47.8 ± 4 µM; in data set [7], 9.9 ± 1.8 µM; in data set [8], 3.8 ± 0.5 µM.

For `N.N.[Cl][Pt][Cl]` [cisplatin, cis-[Pt^II(NH3)2Cl2], reference compound], in data set [1] (concentration equal to IC50), the “% G0/G1 ± S.E.M.” value is 18.58 ± 0.58%, the “% G2/M ± S.E.M.” value was determined as 5.44 ± 0.04%, the “% S ± S.E.M.” value was 5.33 ± 0.13% and the “% Sub-G1 ± S.E.M.” value stood at 64.16 ± 0.74%. Besides, in data set [1] (concentration equal to IC75), the “% G0/G1 ± S.E.M.” value is given as 20.88 ± 0.14%, the “% G2/M ± S.E.M.” value was found to be 4.73 ± 0.13%, the “% S ± S.E.M.” value came out at 5.81 ± 0.30% and the “% Sub-G1 ± S.E.M.” value came out at 61.81 ± 0.39%. Moreover, the IC50 in data set [6] was determined as 39.8 ± 3.5 µM. For the same compound, the “DNA-bound Pt in A2780 cisR” value in data set [3] (40 μM of Pt complexes) is recorded as 665 · 10^−15 ± 6 moles of Pt/μg of DNA. In data set [4], the “Uptake of Pt complexes into A2780 cisR” value is 98 ± 11 pmol Pt/2 × 10^6 cell. Moreover, the IC50 in data set [7] came to 7.5 ± 1.2 µM. In addition, the IC50 in data set [8] was 1 ± 0.5 µM.
